{"source": "patent US5654179A", "about": "“Nucleic acid preparation methods” (HRI Research, Inc., priority 1994, dated 1997)", "key": {"[1]": {"test_system": "DNA ligase from mouse erythroleukemia (MEL) cells", "conditions": "dilution, dialysis, or sucrose gradient centrifugation of cell-free extracts; cited from earlier work"}, "[2]": {"test_system": "virion-associated reverse transcriptase (RTase) of murine leukemia virus (MuLV)", "conditions": "cited from earlier work"}, "[3]": {"test_system": "DNA ligase", "conditions": "cited from earlier work"}, "[4]": {"test_system": "T4 DNA ligase", "conditions": "dilution, dialysis, or sucrose gradient centrifugation of cell-free extracts; cited from earlier work"}, "[5]": {"test_system": "NAD-dependent DNA ligase from E. coli", "conditions": "cited from earlier work"}, "[6]": {"test_system": "reverse transcriptase purified from arian myeloblastosis virus", "conditions": "cited from earlier work"}, "[7]": {"test_system": "Taq polymerase", "conditions": "cited from earlier work"}, "[8]": {"test_system": "DNA-cytoplasmic DNA polymerase complex", "conditions": "cited from earlier work"}, "[9]": {"test_system": "Taq polymerase", "test": "PCR from boiled whole blood with or without transferrin", "format": "biochemical", "conditions": "with transferrin; without transferrin inhibited above 1 μl", "experimental": "Experiment 1. Whole blood (200 μl) was boiled for 10 minutes then briefly centrifuged to precipitate the solid coagulated mass which formed. The supernatant layer was then used directly for PCR amplification (1, 2, 3, 4, or 5 μl), either with or without transferrin. […] An aliquot of 5 μl whole blood processed by Mode III gave a very intense signal, indicating the advantage of the method over the boiling method, which provided no signal at all with a 5 μl aliquot."}, "[10]": {"test": "Transferrin binding of heme", "from_the_text": "This is lower than that expected from the molar ratio for transferrin to iron binding of 0.5. Second, there is the question of the central metal ion: the central metal iron was found not to be required for the transferrin-mediated phenomenon of the present invention."}, "[11]": {"conditions": "in the presence of an anion (such as HCO3^-); cited from earlier work"}, "[12]": {"test_system": "Taq polymerase", "test": "PCR inhibition, SK38/39 system, 115-mer product on ethidium bromide gel or autoradiograph", "format": "biochemical", "experimental": "(§1) Generally, PCR was carried out using 175-200 μM dNTPS (deoxyribonucleoside 5'-triphosphates) and 0.5 to 1.0 μM primers. Five units/100 μl of Taq polymerase were used. PCR reactions were overlaid with 30-100 μl light mineral oil. A typical PCR cycle for HIV amplification using a Perkin-Elmer Cetus DNA Thermal Cycler (Part No. N8010150) was: denaturation at 95° C. for 30 seconds; annealing at 55° C. for 30 seconds; and extension at 72° C. for 1 minute. PCR cycles were normally carried out in this manner for 35 cycles followed by 7 minutes at 72° C.\nIn other cases, amplification of HIV sequences was performed using primer pair SK-38 (SEQ ID NO:5) and SK-39 (SEQ ID NO:6) and 115-mer (SEQ ID NO:7) as target to produce a 115-mer product.\nWhere agarose gel electrophoresis was used, the PCR products were fractionated by electrophoresis through a 3% Nusieve/1% agarose gel in TBE buffer. Electrophoresis was typically carried out in a constant voltage of 8-10 V/cm. Following agarose gel electrophoresis, individual bands were, in most cases, visualized by ethidium bromide staining. This involved staining the agarose gel with 1 μg/ml ethidium bromide in TBE for 30 minutes followed by destaining the agarose gel with TBE for 30 minutes.\nThe chemical reaction was performed as follows. Two aliquots (30 mg/aliquot) of sodium borohydride (NaBH4) were added at ten minute intervals to 1 ml of 200 μM hematin (Sigma) in 1M Tris (pH 8.0) under argon in the dark. The pH was adjusted to 6.0 between additions. At the end of the reaction (20 minutes) the pH was adjusted to 1.0 and then neutralized to pH 7.0. Six aliquots (5 μl) of the product of the reaction corresponding to different amounts of reacted hematin (37.5 μM, 7.5 μM, 1.5 μM, 0.3 μM, 0.06 μM, 0.012 μM) were added to standard (20 μl) PCR reactions in different tubes using the SK38/39 system (see above). Three standard control reactions were run in separate tubes: i) a no nucleic acid target control; ii) a no primer control; and iii) a positive control (no hematin). In addition, unreacted hematin was added to four different tubes in different amounts (50 μM, 5 μM, 0.5 μM, and 0.05 μM). PCR was carried out for 30 cycles. The PCR products were thereafter electrophoresed (agarose) and visualized with ethidium bromide staining (FIG. 2A, lanes 1-13). The three above-named control reactions were electrophoresed in lanes 1, 2 and 3, respectively. […] The unreacted hematin tubes (lanes 4-7) show no product until hematin is present at a very low concentration (0.05 μM, lane 7), at which point product is evident. […] Indeed, product is evident where 1.5 μM reacted hematin or less was present. […] A score (i.e., % maximum intensity of a positive control) was given to each band. An OD unit of 1.0 corresponds to 100% of maximum intensity. After examination of a plot of the estimated OD units to the concentration of hematin (expressed in the log scale) in these PCR reactions, it is clear that approximately a thirty-fold concentration difference was achieved (reacted to unreacted).\nThe photochemical reaction was performed as follows. Stock biliverdin (Sigma, 5 mM) was diluted in solution (50 mM Tris pH 7.8) to a final concentration of 200 μM. Two aliquots (300 μl) were then made. One aliquot was left unreacted. The other aliquot was exposed to ultraviolet radiation from an HRI-100 for 16 hours using the industry standard, F8T5BL hot cathode dual bipin lamps. Thereafter, both the unirradiated and irradiated materials were added (5 μl) to standard (20 μl) PCR reactions in different tubes using the SK38/39 system (see above) and 10^9 copies of 115-mer target. Three standard control reactions were run in separate tubes: i) a no nucleic acid target control; ii) a positive control (no biliverdin); and iii) a no Taq control. PCR was carried out for thirty (30) cycles. The PCR products were thereafter electrophoresed (agarose) and visualized with ethidium bromide staining (FIG. 3A, lanes 1-5). […]"}, "[13]": {"test_system": "Taq polymerase", "format": "biochemical", "experimental": "as §1\nIn some instances below, amplification of human histocompatibility (HLA) Class II genes was performed using primer pair GH26 (SEQ ID NO:2) and GH27 (SEQ ID NO:3) and human placental DNA to produce a 242-mer product (SEQ ID NO: 4). These primers and other primers are described in PCR Protocols: A Guide To Methods and Applications, Innis, M. A. et al. eds., pp. 261-271 (1990)).\nWhole blood was prepared according to Mode III (see FIG. 1). Whole blood samples (100 μl) were lysed with protease K (0.5 mg/ml, 55° C. for 1 hour). The enzyme was inactivated by heating (95°-100°C., 10 minutes). Four sets of reactions were then set up involving the addition of interfering reagent to the protease lysate: 1) transferrin with 10 mM sodium bicarbonate; 2) transferrin with 20 mM sodium bicarbonate; 3) serum albumin with 10 mM sodium bicarbonate; and 4) serum albumin with no cofactor. These reaction were performed at room temperature for thirty minutes using a concentration range for transferrin and serum albumin (10, 25, 50, 75, 100, 150, 200 and 250 μg per 20 μl PCR rxn). PCR was then set up using the primer pair GH26/GH27 to produce a 242-mer product (see above). Two standard control reactions were run in separate tubes: i) a no nucleic acid target control; and 2) a positive control (human placental DNA). Four additional control lanes were run: 1) no inhibitor treatment (two lanes); 2) 10 mM sodium bicarbonate only (one lane); and 3) 50 μg transferrin only (one lane); and 4) transferrin with 10 mM sodium bicarbonate (two lanes). PCR was carried out for 35 cycles. The PCR products were thereafter electrophoresed (agarose) and visualized with ethidium bromide staining. The two above-named control reactions were electrophoresed in lanes 9 and 10 of FIG. 16A, respectively, as well as lanes 17 and 18 of FIG. 16B, respectively. In FIG. 16C, the positive control is in lane 1 and the negative control is in lane 2.\nWhole blood was prepared according to Mode III (see FIG. 1). Whole blood samples (20 μl) were lysed with protease K (0.5 mg/ml, 55° C. for 1 hour). The enzyme was inactivated by heating (95°-100° C., 10 minutes). Reactions were then set up involving the addition of bovine transferrin or serum albumin with various cofactors, including bicarbonate ion, azide ion, thiocyanate ion, cyanate ion, oxalate ion, malonate ion, glycinate ion, and thioglycolate ion. These reaction were performed at room temperature for thirty minutes. PCR was then set up using the using primer pair GH26/GH27 to produce a 242-mer product (see above). PCR was carried out for 35 cycles. The PCR products were thereafter electrophoresed (agarose) and visualized with ethidium bromide staining."}, "[14]": {"test_system": "Taq polymerase", "test": "HIV PCR after inhibitor treatment of whole blood lysate", "format": "biochemical", "conditions": "Mode III, transferrin with sodium bicarbonate", "experimental": "The enzyme was inactivated by heating (95°-100° C., 10 minutes)."}}, "note": "pIC50: −log10 of the molar value. Where two headings read alike, the source gives them in different places.", "data": [{"substance": "hemin", "values": [{"measurement": "reversibility of inhibition of DNA ligase", "setting": "[1]", "result": "not reversible"}, {"measurement": "reversibility of inhibition of MuLV RTase", "setting": "[2]", "result": "reversible inhibitor"}, {"measurement": "concentration that does not affect DNA ligase activity or DNA substrate integrity", "setting": "[3]", "result": "≤ 4", "unit": "µM"}, {"measurement": "pIC50", "setting": "[3]; pre-incubation, depending on the source of the DNA ligase, read-out: half-maximal inhibition of DNA ligase", "result": "4.00 to 4.60"}, {"measurement": "reversibility of inhibition of T4 DNA ligase", "setting": "[4]", "result": "not reversible"}, {"measurement": "concentration up to which E. coli DNA ligase was not inhibited", "setting": "[5]", "result": "up to 150 μM"}, {"measurement": "inhibition of reverse transcriptase from myeloblastosis virus", "setting": "[6]", "result": "does not inhibit"}, {"measurement": "inhibition of PCR / Taq polymerase", "setting": "[7]", "result": "inhibit"}, {"measurement": "complete inhibition of the formation of DNA-enzyme complex", "setting": "[8]", "result": "≥ 12", "unit": "µM"}, {"measurement": "mode of inhibition of DNA synthesis", "setting": "[8]", "result": "competitive with respect to template and noncompetitive with respect to substrate"}]}, {"substance": "transferrin: blood serum component, an iron transport protein", "values": [{"measurement": "aliquot of boiled whole blood supernatant up to which signal was provided", "setting": "[9]", "result": "≤ 3", "unit": "µL"}, {"measurement": "molar ratio of transferrin to heme at which transferrin is most effective in binding heme", "setting": "[10]", "result": "< 0.27"}, {"measurement": "capacity to take up iron atoms", "setting": "[11]", "result": 2, "unit": "iron atoms per molecule"}, {"measurement": "PCR product in presence of protoporphyrin", "setting": "[12]", "result": "product is visible"}, {"measurement": "PCR product", "setting": "[13]; 10 μg per 20 μl PCR rxn, with cofactor", "result": "No product is visible"}, {"measurement": "PCR product", "setting": "[13]; 25 μg per 20 μl PCR rxn, with cofactor", "result": "faint product band"}, {"measurement": "PCR product", "setting": "[13]; 50 μg transferrin alone", "result": "No product is visible"}, {"measurement": "PCR product", "setting": "[13]; 50 μg transferrin with 10 mM cofactor", "result": "Strong product bands"}, {"measurement": "PCR product", "setting": "[13]; higher concentration of the cofactor (20 mM sodium bicarbonate), lanes 11-18", "result": "not as apparent"}, {"measurement": "PCR product", "setting": "[13]; higher concentrations (50 to 250 μg, lanes 3-8), with cofactor", "result": "Strong product bands"}, {"measurement": "amplification specificity", "setting": "[14]", "result": "improves the specificity of the reaction"}]}]}
